Reference: patent US11491120B2, “Pharmacological prophylactics against stress-induced affective disorders in females” (The Trustees of Columbia University in the City of New York, priority 2017, dated 2022)
“Also recorded” adds a separate entry of the source.

System: female 129S6/SvEv mice
Test: Contextual fear conditioning (CFC), 3-shock, freezing in training and context re-exposure
[1] = Contextual Fear Conditioning Re-exposure, Dunnett test Sal vs. drug (2.5), 1 week prophylactic drug
[2] = Contextual Fear Conditioning Re-exposure, Dunnett test Sal vs. drug (10), 1 week prophylactic drug
[3] = Contextual Fear Conditioning Training, Dunnett test Sal vs. drug (0.025), 1 week prophylactic drug
[4] = Contextual Fear Conditioning Training, Dunnett test Sal vs. drug (0.075), 1 week prophylactic drug
[5] = Contextual Fear Conditioning Training, Dunnett test Sal vs. drug (0.1), 1 week prophylactic drug
[6] = Contextual Fear Conditioning Training, Dunnett test Sal vs. drug (0.3), 1 week prophylactic drug
[7] = Contextual Fear Conditioning Training, Dunnett test Sal vs. drug (2.5), 1 week prophylactic drug
[8] = Contextual Fear Conditioning Training, Dunnett test Sal vs. drug (10), 1 week prophylactic drug
[9] = Ovariectomized cohort, 1 week prophylactic drug, Contextual Fear Conditioning Re-exposure, FIG. 10B, Sham mice, K (10), (2R,6R)-HNK (0.025)
[10] = Ovariectomized cohort, 1 week prophylactic drug, Contextual Fear Conditioning Re-exposure, FIG. 10C, Sham mice, K (10), (2R,6R)-HNK (0.025)
[11] = Ovariectomized, E2/P4 replacement, 1 week prophylactic drug, Contextual Fear Conditioning Training, FIG. 10D, Vehicle vs E2/P4, same drug, K (10), (2R,6R)-HNK (0.025)
[12] = Sal vs. (2R,6R)-HNK (0.025), Fisher's PLSD, 1 week prophylactic drug, learned helplessness stress, Contextual Fear Conditioning Re-exposure
[13] = Sal vs. (2R,6R)-HNK (0.025), Fisher's PLSD, Stress, antidepressant drug/Contextual Fear Conditioning Training

**Q.** With N[C@@]1(c2ccccc2Cl)CCC[C@@H](O)C1=O [(2R,6R)-HNK, (2R,6R)-hydroxynorketamine] as the compound, how does the “p, Freezing (min 2)” value [1] read?
**A.** Its value is 0.2365.

**Q.** What about the “p, Freezing (min 3)” value [1] of the same compound?
**A.** Its value is 0.4707.

**Q.** What about the “p, Freezing (min 4)” value [1] of the same compound?
**A.** The value was 0.3440.

**Q.** What about the “p, Freezing (min 5)” value [1] of the same compound?
**A.** The value was 0.9997.

**Q.** And the “p, Freezing (min 1-5)” value [2]?
**A.** Its value is 0.9991.

**Q.** What about the “p, Freezing (min 2)” value [2] of the same compound?
**A.** The value was 0.9994.

**Q.** And the “p, Freezing (min 3)” value [2]?
**A.** Its value is 0.9074.

**Q.** What about the “p, Freezing (min 4)” value [2] of the same compound?
**A.** The value was 0.9994.

**Q.** And the “p, Freezing (min 5)” value [2]?
**A.** Its value is 0.9003.

**Q.** What about the “p, Freezing (min 1-5)” value [3] of the same compound?
**A.** The value was 0.7272.

**Q.** And the “p, Freezing (min 4)” value [3]?
**A.** The value was 0.9640.

**Q.** What about the “p, Freezing (min 5)” value [3] of the same compound?
**A.** Its value is 0.9668.

**Q.** And the “p, Freezing (min 1-5)” value [4]?
**A.** The value was 0.9917.

**Q.** And the “p, Freezing (min 4)” value [4]?
**A.** Its value is 0.9911.

**Q.** What about the “p, Freezing (min 5)” value [4] of the same compound?
**A.** The value was 0.9993.

**Q.** What about the “p, Freezing (min 1-5)” value [5] of the same compound?
**A.** Its value is 0.6657.

**Q.** And the “p, Freezing (min 4)” value [5]?
**A.** Its value is greater than 0.9999.

**Q.** And the “p, Freezing (min 5)” value [5]?
**A.** Its value is 0.2588.

**Q.** What about the “p, Freezing (min 1-5)” value [6] of the same compound?
**A.** Its value is 0.9992.

**Q.** What about the “p, Freezing (min 4)” value [6] of the same compound?
**A.** The value was 0.9477.

**Q.** And the “p, Freezing (min 5)” value [6]?
**A.** The value was greater than 0.9999.

**Q.** What about the “p, Freezing (min 1-5)” value [7] of the same compound?
**A.** The value was 0.9993.

**Q.** And the “p, Freezing (min 4)” value [7]?
**A.** The value was 0.9991.

**Q.** What about the “p, Freezing (min 5)” value [7] of the same compound?
**A.** Its value is 0.9997.

**Q.** And the “p, Freezing (min 1-5)” value [8]?
**A.** Its value is 0.1798.

**Q.** What about the “p, Freezing (min 4)” value [8] of the same compound?
**A.** The value was 0.4387.

**Q.** What about the “p, Freezing (min 5)” value [8] of the same compound?
**A.** The value was 0.3423.

**Q.** And the “p, Freezing (min 1-5), Fisher's PLSD, OVX Sal vs OVX drug” value (Ovariectomized cohort, 1 week prophylactic drug, Contextual Fear Conditioning Re-exposure, FIG. 10B, OVX mice, K (10), (2R,6R)-HNK (0.025))?
**A.** Its value is 0.2290.

**Q.** And the “* (significance), Freezing (min 1-5), Fisher's PLSD, Sham Sal vs Sham drug” value [9]?
**A.** Its value is “* (* p<0.05)”.

**Q.** What about the “p, Freezing (min 1-5), Fisher's PLSD, Sham Sal vs Sham drug” value [9] of the same compound?
**A.** The value was 0.0244.

**Q.** What about the “p, Freezing (min 1-5), Fisher's PLSD, Sham drug vs OVX drug” value (Ovariectomized cohort, 1 week prophylactic drug, Contextual Fear Conditioning Re-exposure, FIG. 10B, Sham vs OVX, same drug, K (10), (2R,6R)-HNK (0.025)) of the same compound?
**A.** Its value is 0.3764.

**Q.** What about the “p, Freezing Average (min 1-5), Fisher's PLSD, OVX Sal vs OVX drug” value (Ovariectomized cohort, 1 week prophylactic drug, Contextual Fear Conditioning Re-exposure, FIG. 10C, OVX mice, K (10), (2R,6R)-HNK (0.025)) of the same compound?
**A.** Its value is 0.2290.

**Q.** And the “* (significance), Freezing Average (min 1-5), Fisher's PLSD, Sham Sal vs Sham drug” value [10]?
**A.** Its value is “* (* p<0.05)”.

**Q.** And the “p, Freezing Average (min 1-5), Fisher's PLSD, Sham Sal vs Sham drug” value [10]?
**A.** The value was 0.0244.

**Q.** And the “p, Freezing Average (min 1-5), Fisher's PLSD, Sham drug vs OVX drug” value (Ovariectomized cohort, 1 week prophylactic drug, Contextual Fear Conditioning Re-exposure, FIG. 10C, Sham vs OVX, same drug, K (10), (2R,6R)-HNK (0.025))?
**A.** Its value is 0.3764.

**Q.** And the “p, Freezing (min 1-5), Fisher's PLSD, E2/P4 Sal vs E2/P4 drug” value (Ovariectomized, E2/P4 replacement, 1 week prophylactic drug, Contextual Fear Conditioning Re-exposure, FIG. 10E, E2/P4 mice, K (10), (2R,6R)-HNK (0.025))?
**A.** Its value is 0.4219.

**Q.** What about the “p, Freezing (min 1-5), Fisher's PLSD, Vehicle Sal vs Vehicle drug” value (Ovariectomized, E2/P4 replacement, 1 week prophylactic drug, Contextual Fear Conditioning Re-exposure, FIG. 10E, Vehicle (hormone) mice, K (10), (2R,6R)-HNK (0.025)) of the same compound?
**A.** The value was 0.9324.

**Q.** And the “p, Freezing (min 1-5), Fisher's PLSD, Vehicle drug vs E2/P4 drug” value (Ovariectomized, E2/P4 replacement, 1 week prophylactic drug, Contextual Fear Conditioning Re-exposure, FIG. 10E, Vehicle vs E2/P4, same drug, K (10), (2R,6R)-HNK (0.025))?
**A.** Its value is 0.5588.

**Q.** What about the “p, Freezing Average (min 1-5), Fisher's PLSD, E2/P4 Sal vs E2/P4 drug” value (Ovariectomized, E2/P4 replacement, 1 week prophylactic drug, Contextual Fear Conditioning Re-exposure, FIG. 10F, E2/P4 mice, K (10), (2R,6R)-HNK (0.025)) of the same compound?
**A.** The value was 0.4219.

**Q.** What about the “p, Freezing Average (min 1-5), Fisher's PLSD, Vehicle Sal vs Vehicle drug” value (Ovariectomized, E2/P4 replacement, 1 week prophylactic drug, Contextual Fear Conditioning Re-exposure, FIG. 10F, Vehicle (hormone) mice, K (10), (2R,6R)-HNK (0.025)) of the same compound?
**A.** Its value is 0.9324.

**Q.** What about the “p, Freezing Average (min 1-5), Fisher's PLSD, Vehicle drug vs E2/P4 drug” value (Ovariectomized, E2/P4 replacement, 1 week prophylactic drug, Contextual Fear Conditioning Re-exposure, FIG. 10F, Vehicle vs E2/P4, same drug, K (10), (2R,6R)-HNK (0.025)) of the same compound?
**A.** Its value is 0.5588.

**Q.** And the “p, Freezing (min 1-5), Fisher's PLSD, E2/P4 Sal vs E2/P4 drug” value (Ovariectomized, E2/P4 replacement, 1 week prophylactic drug, Contextual Fear Conditioning Training, FIG. 10D, E2/P4 mice, K (10), (2R,6R)-HNK (0.025))?
**A.** The value was 0.7901.

**Q.** What about the “p, Freezing (min 1-5), Fisher's PLSD, Vehicle Sal vs Vehicle drug” value (Ovariectomized, E2/P4 replacement, 1 week prophylactic drug, Contextual Fear Conditioning Training, FIG. 10D, Vehicle (hormone) mice, K (10), (2R,6R)-HNK (0.025)) of the same compound?
**A.** Its value is 0.6290.

**Q.** What about the “* (significance), Freezing (min 1-5), Fisher's PLSD, Vehicle drug vs E2/P4 drug” value [11] of the same compound?
**A.** Its value is “** (** p<0.01)”.

**Q.** What about the “p, Freezing (min 1-5), Fisher's PLSD, Vehicle drug vs E2/P4 drug” value [11] of the same compound?
**A.** Its value is 0.0067.

**Q.** What about the “*, Freezing (min 1)” value [12] of the same compound?
**A.** Its value is “* (* p<0.05)”.

**Q.** What about the “p, Freezing (min 1)” value [12] of the same compound?
**A.** Its value is 0.0399.

**Q.** What about the “p, Freezing (min 5)” value (Sal vs. (2R,6R)-HNK (0.025), Fisher's PLSD, 3 day prophylactic drug/Contextual Fear Conditioning Training) of the same compound?
**A.** Its value is 0.9911.

**Q.** And the “p, Freezing (min 1-5)” value [13]?
**A.** Its value is 0.2199.

**Q.** What about the “p, Freezing (min 5)” value [13] of the same compound?
**A.** Its value is 0.0731.

**Q.** What about the “p, Freezing Average (min 1-5)” value (Sal vs. (2R,6R)-HNK (0.025), t-test, 24 hour prophylactic drug/Contextual Fear Conditioning Re-exposure) of the same compound?
**A.** The value was 0.2334.

**Q.** And the “Freezing during CFC Training, E2/P4+drug vs vehicle+drug” value (ovariectomized mice, hormone replacement)?
**A.** The value was “froze significantly more; also recorded: exhibited increased freezing”.

**Q.** What about the “Freezing during CFC re-exposure vs saline” value (ovariectomized mice, vehicle condition) of the same compound?
**A.** Its value is “froze at comparable levels”.

**Q.** What about the “Freezing during re-exposure to the CFC training context vs saline” value (single i.p. injection 1 week before 3-shock CFC, all doses, female mice) of the same compound?
**A.** Its value is “do not significantly alter freezing; also recorded: did not alter overall freezing”.

**Q.** And the “Attenuation of learned fear” value (single injection 1 week before stressor, female mice)?
**A.** The value was “do not alter learned fear; also recorded: do not attenuate learned fear”.
